In patent publication US10519107B2, “Sulfonamide compounds and their use as STAT5 inhibitors” (Governing Council of the University of Toronto, priority 2014, dated 2019):
Entries after “also recorded” stand apart in the source; their conditions may differ.

Key:
[1] = biological target: T1, STAT5; conditions: SPR, 25° C., Langmuir 1:1 binding model; read-out: KD (koff/kon) STAT5
T1 construct: rows headed: KD (koff/kon) STAT5
Experimental: Interactions of His-tagged STAT3 and STAT5 with small molecules were investigated using SPR spectroscopy. The binding experiments were carried on a ProteOn XPR36 (Bio-Rad) biosensor at 25° C. using the HTE sensor chip (Bio-Rad, Ontario, Canada). The flow cells of the sensor chip were loaded with a nickel solution at 30 μL/min for 120 s to saturate the Tris-NTA surface with Ni(II) ions. […] When the injection of the compounds was completed, running buffer was allowed to flow over the immobilized substrates for the non-specifically bound inhibitors to dissociate for 600 s. Following dissociation of the compounds, the chip surface was regenerated with an injection of 1 M NaCl at a flow rate of 100 μL/min for 18 s. Interspot channel reference was used for non-specific binding corrections and the blank channel used with each analyte injection served as a double reference to correct for possible baseline drift. Data were analysed using ProteOn Manager Software version 3.1.

[2] = biological target: wildtype STAT3 protein (Homo sapiens, UniProt P40763); experiment: Fluorescence polarization competitive binding, STAT3; conditions: FP; converted from IC50 with Equation 1
Experimental: Binding of compounds of the disclosure to the STAT5b SH2 domain was assessed using fluorescence polarization assays similar to those previously reported.^15 Analogous assays were also performed with STAT3 protein to determine the specificity of the compounds (13a-d). Fluorescence assays were performed in flat black 384-well plates (Corning) and fluorescence polarization measurements were taken with the Infinite M1000 machine (Tecan, Crailsheim, Germany). The buffer conditions for all assays were 20 mM HEPES, 50 mM NaCl, 1 mM EDTA, 2 mM dithiothreitol, pH 7.5 and the final DMSO concentration in the wells was kept constant at 10%.
Calibration curves for the wildtype STAT3 and STAT5b proteins were derived by incubating a 10 nM final concentration of fluoresceinated-phosphopeptide (5-FAM-pYLPQTC (SEQ ID NO:1) and 5-FAM-GpYLVLDKW (SEQ ID NO:2) for STAT3 and STAT5B, respectively), which are known to bind the SH2 domains, with increasing concentrations of protein (as shown in FIG. 3). The point at which 80% of the fluoresceinated-phosphopeptide was bound was used as the optimal protein concentration required for the competitive fluorescent polarization assays.
For the STAT5b fluorescence polarization assays, the 5-FAM-GpYLVLDKW (SEQ ID NO:2) peptide and STAT5b protein were first incubated for 30 minutes at room temperature. Compounds were titrated at concentrations ranging from 1->60,000 nM and incubated for a further 15 minutes at which point fluorescence polarization measurements were taken in triplicate. The final well concentrations of the fluoresceinated-phosphopeptide and STAT5B were 10 nM and 250 nM, respectively. The same protocol was used for the analogous STAT3 FP assays, except that the 5-FAM-pYLPQTC (SEQ ID NO:1) peptide was used as a probe and the final STAT3 concentration was 150 nM in each well.
The resulting fluorescence polarization measurements were normalized and plotted against compound concentration on a logarithmic scale. The raw data was fitted with a standard dose-normalized response inhibition curve using GraphPad Prism 6 software. The IC50 values were converted to Ki values using Equation 1, which corrects for protein concentration and is a more accurate determination of inhibitory constants in a fluorescence polarization assay than the Cheng-Pruskoff equation.^15 All inhibitory constants and calculated Ki values are summarized in Table 1.
Modified Cheng-Pruskoff equation containing a correction factor for protein concentration.

[3] = system: MV-4;11 (FLT3-ITD) AML cells; experiment: CellTiter-Blue cell viability assay, MV-4;11; format: cell-based, Human
Experimental: Human erythroleukemia K562 and MV-4-11 cells were cultured in Iscove's modified dulbecco's medium (Gibco) supplemented with 10% FBS (Sigma). Breast carcinoma lines MDA-MB-231 and MDA-MB-468 were grown in dulbecco's modified eagles medium (DMEM) supplemented with 10% FBS (sigma). For downregulation of STAT5 activity, cells were treated with 5, 10, 15, 20 μM of 13a-d STAT5 compounds, for 3 h and 5 h time points. As a control, cells were treated with the DMSO alone.
Cell viability was assessed following treatment at various concentrations of inhibitor (0.78-50 μM) using a CellTiter-Blue cell viability assay (72 hours).

[4] = system: MDA-MB-231 breast cancer cells; experiment: Cell viability, MDA-MB-231; format: cell-based
Experimental: Breast carcinoma lines MDA-MB-231 and MDA-MB-468 were grown in dulbecco's modified eagles medium (DMEM) supplemented with 10% FBS (sigma). […] As a control, cells were treated with the DMSO alone.

[5] = system: phosphorylated STAT3 (Tyr 705); experiment: Western blotting of pSTAT3 in MDA-MB-231 cells; format: cell-based
Experimental: Proteins were extracted using RIPA buffer with protease and phosphates inhibitors and a careful protein determination were preformed (BCA protein assay kit, Pierce). In each assay, 30 μg of clarified whole cell extract were resolved on a 10% polyacrylamide-SDS gel and transferred to a nitrocellulose membrane (Bio-Rad). The membranes were blocked with 5% nonfat milk for at least 1 h followed by an overnight incubation in primary antibody.
Immunodetection was performed using antibodies against the total STAT5 (Cell Signaling #9363), phosphorylated STAT5 (Tyr 694) (Cell Signaling, cat. #9359), total STAT3 (Cell Signaling #4904) and phosphorylated STAT3 (Tyr 705) (Cell Signaling #9661), Cleaved Caspase-3 (Asp175) (Cell Signaling #9661), Cleaved-Parp-1 (ab72805) Anti-Cyclin D1 (Abcam ab16663), Anti-Cyclin-D2 (Abcam ab94685), Anti-c-Myc (Abcam ab32072) and β-actin (Cell Signaling #3700) as a loading control, followed by fluorescent conjugated goat secondary antibodies Alexa Fluor 488 (Cell Signaling #4408) and Alexa Fluor 647.
(§1) Downstream of STAT5, modulation of the STAT5 transcriptional targets, MCL-1, CYCLIND1/D2 and MYC was assessed.

[6] = format: in vitro ADME; conditions: mouse
Description: Within these studies, a series of phase I and phase II metabolites within mouse hepatocytes were identified. […] Each peak from the initial mass spectrum is rerun through a tandem mass spec to identify the major peak along with the corresponding fractionation patterns of that metabolite. […] Peak 2 on the other hand is a combination of both phase I and phase II metabolism. […] Most likely, we deduced the acetylation is occurring at the acid position of the salicylic acid moiety, FIG. 11.
Based on the fragmentation pattern, the most likely site of oxidation could reside on the glycine core or the benzyl ring of the salicylic acid, FIG. 12.

[7] = HPLC stability with excess glutathione tripeptide; format: in vitro ADME; conditions: 100 μM compound, 10 mM glutathione, HEPES buffer, 20 h
Description: Considering the structure of 13a, the pentafluorobenzene is the functional moiety that is likely most susceptible to nucleophilic attack from the GST enzyme. Specifically, the para position is highly electron withdrawn enabling for nucleophilic aromatic substitution to take place. […] Data points obtained with the analytical HPLC experiments were fit using ORIGIN software using an exponential decay equation. This equation models for chemical/biological processes whereby a rate in which something happens is proportional to the amount left. Each drug molecule has a certain probability of being metabolized in a small time interval. Thus, as a drug concentration goes down, the rate of its metabolism goes down as well.

[8] = system: MCL-1, MYC, cleaved PARP-1, Caspase-3; experiment: Western blotting of apoptosis markers and STAT5 transcriptional targets in K562 cells
Experimental: Proteins were extracted using RIPA buffer with protease and phosphates inhibitors and a careful protein determination were preformed (BCA protein assay kit, Pierce). […] The membranes were blocked with 5% nonfat milk for at least 1 h followed by an overnight incubation in primary antibody.
as §1

Sequence of wildtype STAT3 protein (P40763 whole entry, species assumed, the tested form may be a part): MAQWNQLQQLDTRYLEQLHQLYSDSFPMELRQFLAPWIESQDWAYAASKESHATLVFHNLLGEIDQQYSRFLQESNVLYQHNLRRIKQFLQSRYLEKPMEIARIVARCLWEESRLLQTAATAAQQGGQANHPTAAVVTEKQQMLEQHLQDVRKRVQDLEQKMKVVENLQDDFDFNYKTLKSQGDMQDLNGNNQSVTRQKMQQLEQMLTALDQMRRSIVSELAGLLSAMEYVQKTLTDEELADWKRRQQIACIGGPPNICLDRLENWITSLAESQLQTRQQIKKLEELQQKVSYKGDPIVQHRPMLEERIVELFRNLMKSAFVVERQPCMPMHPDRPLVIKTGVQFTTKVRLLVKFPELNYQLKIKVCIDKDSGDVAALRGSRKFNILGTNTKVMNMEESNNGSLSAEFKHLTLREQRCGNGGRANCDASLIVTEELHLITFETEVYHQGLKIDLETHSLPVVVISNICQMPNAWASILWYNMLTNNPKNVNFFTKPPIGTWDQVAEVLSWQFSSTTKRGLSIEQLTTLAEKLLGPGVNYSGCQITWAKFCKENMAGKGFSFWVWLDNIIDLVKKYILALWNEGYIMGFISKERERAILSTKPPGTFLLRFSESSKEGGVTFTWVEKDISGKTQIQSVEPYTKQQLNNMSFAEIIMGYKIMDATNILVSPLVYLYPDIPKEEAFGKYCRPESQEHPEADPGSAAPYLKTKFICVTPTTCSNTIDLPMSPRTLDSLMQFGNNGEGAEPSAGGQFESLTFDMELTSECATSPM

## CC(C)(C)c1cc(CN(C(=O)CN(Cc2ccc(Cl)cc2)S(=O)(=O)c2c(F)c(F)c(F)c(F)c2F)c2ccc(C(=O)O)c(O)c2)cc(C(C)(C)C)c1 [Compound 13a, 4-(2-((N-(4-chlorobenzyl)-2,3,4,5,6-pentafluorophenyl)sulfonamido)-N-(3,5-di-tert-butylbenzyl)acetamido)-2-hydroxybenzoic Acid]
[1]
  Kd: 0.0419 ± 0.004 µM
[2]
  Ki: > 60 µM
[3]; 10 μM
  effect on MV-4;11 cells: abolished
[3]; Homo sapiens, MV4-11, 72 hours, CellTiter-Blue
  IC50: 3.5 µM
[4]
  less cytotoxic in MDA-MB-231 than in high pSTAT5 leukemic cell line: 3 fold
[5]; MDA-MB-231, doses corresponding to STAT5 inhibition
  pSTAT3 inhibition: not inhibited
[5]; MDA-MB-231 and leukemic cell line
  total STAT3 and STAT5 protein levels: neither total STAT3 or STAT5 protein levels were affected
[6]; 240 min
  intact compound recovered: majority of intact 13a is recovered
[6]; 4 h
  glutathione derivatives, collective share of metabolites recovered: 10%
  parent compound recoverable: > 85%
[7]
  stability to glutathione conjugation: stable to glutathione conjugation
[8]; K562, 5 hrs
  MYC (c-MYC) expression: dose-dependant decreases; also recorded: dose-dependent decreases
[8]; K562, 24 hrs, 15 μM
  MCL-1 expression: complete knockdown
  apoptosis (cleaved PARP-1, Caspase-3): undergo cell death
